Results from patent publication US20240075050A1, “Methods and Compositions for Treating Leucine Rich Repeat Kinase 2 (LRRK2)-Associated Disorder or Condition” (University of Connecticut, priority 2022, published 2024).

Tests used:
LRRK2 = assay: Endogenous LRRK2 levels in SH-SY5Y cells, Western blot; assay type: cell-based, human
[1] = stated as reason for using the precursor AICAr; cited from earlier work
[2] = test system: [α-32P]cap-labeled LRRK2 RNA; assay: In vitro decapping assay; assay type: biochemical, human; details: recombinant Flag-tagged protein from HEK 293T cells, thin layer chromatography

For `N#Cc1c(O)c2c(-c3ccc(-c4ccccc4O)cc3)csc2[nH]c1=O` [A769662], the LRRK2 levels (LRRK2; SH-SY5Y, 10, 20, or 50 μM A769662, 48 hours) was “no obvious effects”.

For `NC(=O)c1ncn([C@@H]2O[C@H](COP(=O)(O)O)[C@@H](O)[C@H]2O)c1N` [AICAR/ZMP, 5-aminoimidazole-4-carboxamide ribonucleotide], the membrane permeability [1] is given as “membrane impermeable”.

With `Nc1ncnc2nc(-c3ccc(N4CCOCC4)nc3)cc(-c3cccc(Br)c3)c12` [ABT-702] the “effect of AICAr on LRRK2 levels in the presence of ABT-702” value (LRRK2; SH-SY5Y, 1 mM AICAr plus 1 μM ABT-702, 48 hours) was “completely counteracted”.

With “DCP2: recombinant Flag-tagged decapping enzyme purified from HEK 293T cells” the “LRRK2 mRNA decapping activity (m7GDP level)” value [2] was “decapped LRRK2 mRNA”.

With `O=[N+]([O-])c1ccc(CSc2ncnc3c2ncn3[C@@H]2O[C@H](CO)[C@@H](O)[C@H]2O)cc1` [NBTI] the “effect of AICAr on LRRK2 levels in the presence of NBTI” value (LRRK2; SH-SY5Y, 1 mM AICAr plus 50 μM NBT-1, 48 hours) was “completely abolished”.

B1: DCP1A: recombinant Flag-tagged decapping enzyme purified from HEK 293T cells (protein, UniProt Q9NPI6 1-582, looked up)
mRNA-decapping enzyme 1A: MEALSRAGQEMSLAALKQHDPYITSIADLTGQVALYTFCPKANQWEKTDIEGTLFVYRRSASPYHGFTIVNRLNMHNLVEPVNKDLEFQLHEPFLLYRNASLSIYSIWFYDKNDCHRIAKLMADVVEEETRRSQQAARDKQSPSQANGCSDHRPIDILEMLSRAKDEYERNQMGDSNISSPGLQPSTQLSNLGSTETLEEMPSGSQDKSAPSGHKHLTVEELFGTSLPKEQPAVVGLDSEEMERLPGDASQKEPNSFLPFPFEQLGGAPQSETLGVPSAAHHSVQPEITTPVLITPASITQSNEKHAPTYTIPLSPVLSPTLPAEAPTAQVPPSLPRNSTMMQAVKTTPRQRSPLLNQPVPELSHASLIANQSPFRAPLNVTNTAGTSLPSVDLLQKLRLTPQHDQIQTQPLGKGAMVASFSPAAGQLATPESFIEPPSKTAAARVAASASLSNMVLAPLQSMQQNQDPEVFVQPKVLSSAIPVAGAPLVTATTTAVSSVLLAPSVFQQTVTRSSDLERKASSPSPLTIGTPESQRKPSIILSKSQLQDTLIHLIKNDSSFLSTLHEVYLQVLTKNKDNHNL
modifications: Flag tag
notes: recombinant Flag-tagged decapping enzyme purified from HEK 293T cells
For B1, the “LRRK2 mRNA decapping activity (m7GDP level)” value [2] was “decapped LRRK2 mRNA”.
